Experimental data taken from patent publication US20230241081A1, “Method for Treating Melanoma” (The Regents of the University of Colorado, a body corporate, priority 2020, published 2023).
Residues, ends and D or L forms follow the SMILES beside them. *: point of attachment. Cbz = O=C(OCc1ccccc1)*

Molecular target: T1, PRL-3 (Homo sapiens, UniProt O75365)
T1 construct: endogenous in cells; host or cells: BT-20 cells
Assay: PRL-3 degradation in BT-20 cells
Assay type: cell-based
Conditions: proteasomal inhibitor with 100 nM compound A, FIG. 6

T1 sequence (O75365 whole entry): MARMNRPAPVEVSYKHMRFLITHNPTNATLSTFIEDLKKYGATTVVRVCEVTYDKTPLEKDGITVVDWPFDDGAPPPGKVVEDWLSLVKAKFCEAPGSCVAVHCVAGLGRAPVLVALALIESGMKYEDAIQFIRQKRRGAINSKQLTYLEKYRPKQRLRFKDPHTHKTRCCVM

Compound: CC(C)C[C@@H](C=O)NC(=O)[C@H](CC(C)C)NC(=O)[C@H](CC(C)C)NC(=O)OCc1ccccc1 [MG-132] (Cbz-Leu-Leu-Leu-aldehyde)
- effect on compound A-mediated degradation of PRL-3: block compound A-mediated degradation of PRL-3
